From patent publication US20240285626A1, “INFIGRATINIB FOR TREATMENT OF FGFR3-RELATED SKELETAL DISEASES DURING PREGNANCY” (INSERM (INSTITUT NATIONAL DE LA SANTÉ ET DE LA RECHERCHE …, priority 2018, published 2024)

Key:
Fgfr3Y367C/+ pups = format: in vivo, mice
Description: We treated pregnant female Fgfr3^Neo/Y367C mice that were mated with Cre^CMV/+ male mice (Pannier, S., Couloigner, V., Messaddeq, N., Elmaleh-Bergès, M., Munnich, A., Romand, R., & Legeai-Mallet, L. (2009). Activating Fgfr3 Y367C. mutation causes hearing loss and inner ear defect in a mouse model of chondrodysplasia. Biochimica et Biophysica Acta (BBA)-Molecular Basis of Disease, 1792(2), 140-147.). We injected BGJ398 (4 mg/kg) subcutaneously in 5 pregnant mice at day E14.5 continuing daily through day 1 (after birth). The pregnant mice received 5 injections of BGJ398 before delivery. We applied isofluorane inhalation to the pregnant mice during 20 seconds before the subcutaneous injections. All the pups were analyzed at day 1 after birth. At necropsy, all the long bones were measured and embedded in paraffin and were submitted to histology and immunology.

[1] = tested on: Fgfr3Y367C/+ pups exhibiting dwarfism; conditions: Komla-Ebri et al 2016; Biosse Duplan et al 2016; cited from earlier work
[2] = Fgfr3Y367C/+ pups, day 1 after birth, mothers 4 mg/kg s.c. daily from E14.5, vs vehicle
[3] = femur histology, H&E staining, vs vehicle, data not shown

- placental transfer (Fgfr3Y367C/+ pups; mouse, in vivo): cross the placenta at therapeutic level
Compound: CCN1CCN(c2ccc(Nc3cc(N(C)C(=O)Nc4c(Cl)c(OC)cc(OC)c4Cl)ncn3)cc2)CC1 [BGJ398, 3-(2,6-dichloro-3,5-dimethoxyphenyl)-1-[6-[4-(4-ethylpiperazin-1-yl)anilino]pyrimidin-4-yl]-1-methylurea]
- skeletal phenotype at birth (Fgfr3Y367C/+ pups; 4 Fgfr3Y367C/+ pups that received BGJ398 vs 5 that received vehicle): improvement of the skeletal phenotype
- length of the upper limbs (humerus, ulna, radius), in words (Fgfr3Y367C/+ pups; FIG. 1A-C, pups at day 1, mothers 4 mg/kg s.c.): significant improvement of the length
- length of the lower limbs (femur, tibia), in words (Fgfr3Y367C/+ pups; FIG. 2A-B, pups at day 1, mothers 4 mg/kg s.c.): improvement of the length
- improvement of the size of tibia (Fgfr3Y367C/+ pups; [2]): +4.32%
- increase of the length of humerus (Fgfr3Y367C/+ pups; [2]): +4.35%
- increase of the length of ulna (Fgfr3Y367C/+ pups; [2]): +6.12%
- organization of chondrocytes in the proliferative zone of the growth plate cartilage (Fgfr3Y367C/+ pups; [3]): well organized
- size of the hypertrophic chondrocytes in the hypertrophic zone (Fgfr3Y367C/+ pups; [3]): increased
- skeletal anomalies that occurred during embryonic stages (Fgfr3Y367C/+ pups; treatment during 5 days in pregnant mice): successfully repressed skeletal anomalies
- pathological hallmarks of ACH [1]: corrects pathological hallmarks of ACH
